Like-named read-outs stand apart in the source and are kept apart here.
[1] = Cohort B Dose 2: 400mg, Decitabine (n=2), grade 3+
[2] = Cohort B dose 1: 200mg, Decitabine (n=6), Total
[3] = Cohort B dose 1: 200mg, Decitabine (n=6), grade 1&2
[4] = Cohort B dose 1: 200mg, Decitabine (n=6), grade 3+

C1=C/COCc2cc(ccc2OCCN2CCCC2)Nc2nccc(n2)-c2cccc(c2)COC/1 [Pacritinib, 11-(2-pyrrolidin-1-yl-ethoxy)-14,19-dioxa-5,7,26-triaza-tetracyclo[19.3.1.1(2,6). 1(8,12)]heptacosa-1(25),2(26),3,5,8,10,12(27),16,21,23-decaene]
6 (46.2): ELECTROCARDIOGRAM QT CORRECTED INTERVAL PROLONGED, patients (%) (Overall (n=13), Total)
5 (83.3): PLATELET COUNT DECREASED, patients (%) [2] | ANEMIA, patients (%) [4] | PLATELET COUNT DECREASED, patients (%) [4]
0: HYPERTENSION, patients (%) [1] | HYPOALBUMINEMIA, patients (%) [1] | HYPOPHOSPHATEMIA, patients (%) [1] | HYPOXIA, patients (%) [1] | LUNG INFECTION, patients (%) [1] | MUCOSITIS ORAL, patients (%) [1] | PLEURAL EFFUSION, patients (%) [1] | PRURITUS, patients (%) [1] | RASH MACULO-PAPULAR, patients (%) [1] | RASH, patients (%) [1] | RESPIRATORY FAILURE, patients (%) [1] | VOMITING, patients (%) [1] | DYSPNEA, patients (%) [2] | HYPERTENSION, patients (%) [2] | HYPOXIA, patients (%) [2] | PRURITUS, patients (%) [2] | RASH MACULO-PAPULAR, patients (%) [2] | DYSPNEA, patients (%) [3] | FEBRILE NEUTROPENIA, patients (%) [3] | HYPERTENSION, patients (%) [3] | HYPOPHOSPHATEMIA, patients (%) [3] | HYPOXIA, patients (%) [3] | LUNG INFECTION, patients (%) [3] | NEUTROPHIL COUNT DECREASED, patients (%) [3] | PLATELET COUNT DECREASED, patients (%) [3] | PRURITUS, patients (%) [3] | RASH MACULO-PAPULAR, patients (%) [3] | RESPIRATORY FAILURE, patients (%) [3] | WHITE BLOOD CELL DECREASED, patients (%) [3] | ACTIVATED PARTIAL THROMBOPLASTIN TIME PROLONGED, patients (%) [4] | ANOREXIA, patients (%) [4] | CONSTIPATION, patients (%) [4] | DIARRHEA, patients (%) [4] | DYSPNEA, patients (%) [4] | EDEMA LIMBS, patients (%) [4] | FATIGUE, patients (%) [4] | HYPERGLYCEMIA, patients (%) [4] | HYPERTENSION, patients (%) [4] | HYPOALBUMINEMIA, patients (%) [4] | HYPOKALEMIA, patients (%) [4] | HYPOXIA, patients (%) [4] | NAUSEA, patients (%) [4] | PLEURAL EFFUSION, patients (%) [4] | PRURITUS, patients (%) [4] | RASH MACULO-PAPULAR, patients (%) [4] | RASH, patients (%) [4] | VOMITING, patients (%) [4] | LUNG INFECTION, patients (%) (Overall (n=13), grade 1&2) | ACTIVATED PARTIAL THROMBOPLASTIN TIME PROLONGED, patients (%) (human, in vivo) | ANOREXIA, patients (%) (human, in vivo) | CONSTIPATION, patients (%) (human, in vivo) | DIARRHEA, patients (%) (human, in vivo) | DYSPNEA, patients (%) (human, in vivo) | EDEMA LIMBS, patients (%) (human, in vivo) | FATIGUE, patients (%) (human, in vivo)
1 (16.7): ACTIVATED PARTIAL THROMBOPLASTIN TIME PROLONGED, patients (%) [2] | CONSTIPATION, patients (%) [2] | DIARRHEA, patients (%) [2] | EDEMA LIMBS, patients (%) [2] | FEBRILE NEUTROPENIA, patients (%) [2] | HYPERGLYCEMIA, patients (%) [2] | HYPOALBUMINEMIA, patients (%) [2] | HYPOPHOSPHATEMIA, patients (%) [2] | LUNG INFECTION, patients (%) [2] | PLEURAL EFFUSION, patients (%) [2] | RASH, patients (%) [2] | RESPIRATORY FAILURE, patients (%) [2] | ACTIVATED PARTIAL THROMBOPLASTIN TIME PROLONGED, patients (%) [3] | ANEMIA, patients (%) [3] | CONSTIPATION, patients (%) [3] | DIARRHEA, patients (%) [3] | EDEMA LIMBS, patients (%) [3] | ELECTROCARDIOGRAM QT CORRECTED INTERVAL PROLONGED, patients (%) [3] | HYPERGLYCEMIA, patients (%) [3] | HYPOALBUMINEMIA, patients (%) [3] | LYMPHOCYTE COUNT DECREASED, patients (%) [3] | MUCOSITIS ORAL, patients (%) [3] | PLEURAL EFFUSION, patients (%) [3] | RASH, patients (%) [3] | ELECTROCARDIOGRAM QT CORRECTED INTERVAL PROLONGED, patients (%) [4] | FEBRILE NEUTROPENIA, patients (%) [4] | HYPOPHOSPHATEMIA, patients (%) [4] | LUNG INFECTION, patients (%) [4] | MUCOSITIS ORAL, patients (%) [4] | RESPIRATORY FAILURE, patients (%) [4]
6 (100): ANEMIA, patients (%) [2]
3 (50): LYMPHOCYTE COUNT DECREASED, patients (%) [2] | NAUSEA, patients (%) [2] | NEUTROPHIL COUNT DECREASED, patients (%) [2] | WHITE BLOOD CELL DECREASED, patients (%) [2] | NAUSEA, patients (%) [3] | NEUTROPHIL COUNT DECREASED, patients (%) [4] | WHITE BLOOD CELL DECREASED, patients (%) [4]
2 (33.3): ANOREXIA, patients (%) [2] | ELECTROCARDIOGRAM QT CORRECTED INTERVAL PROLONGED, patients (%) [2] | FATIGUE, patients (%) [2] | HYPOKALEMIA, patients (%) [2] | MUCOSITIS ORAL, patients (%) [2] | VOMITING, patients (%) [2] | ANOREXIA, patients (%) [3] | FATIGUE, patients (%) [3] | HYPOKALEMIA, patients (%) [3] | VOMITING, patients (%) [3] | LYMPHOCYTE COUNT DECREASED, patients (%) [4]
3 (23.1): HYPERTENSION, patients (%) (Overall (n=13), Total)
1 (50): HYPOKALEMIA, patients (%) [1] | LYMPHOCYTE COUNT DECREASED, patients (%) [1] | NAUSEA, patients (%) [1] | NEUTROPHIL COUNT DECREASED, patients (%) [1] | PLATELET COUNT DECREASED, patients (%) [1] | WHITE BLOOD CELL DECREASED, patients (%) [1]
7 (53.8): LYMPHOCYTE COUNT DECREASED, patients (%) (Overall (n=13), Total) | NAUSEA, patients (%) (Overall (n=13), Total)
5 (38.5): FATIGUE, patients (%) (Overall (n=13), Total) | ELECTROCARDIOGRAM QT CORRECTED INTERVAL PROLONGED, patients (%) (Overall (n=13), grade 1&2) | FATIGUE, patients (%) (Overall (n=13), grade 1&2)
11 (84.6): ANEMIA, patients (%) (Overall (n=13), Total)
1 (7.7): ELECTROCARDIOGRAM QT CORRECTED INTERVAL PROLONGED, patients (%) (human, in vivo) | RASH MACULO-PAPULAR, patients (%) (human, in vivo)
2 (15.4): ACTIVATED PARTIAL THROMBOPLASTIN TIME PROLONGED, patients (%) (Overall (n=13), Total) | ANOREXIA, patients (%) (Overall (n=13), Total) | CONSTIPATION, patients (%) (Overall (n=13), Total) | DYSPNEA, patients (%) (Overall (n=13), Total) | EDEMA LIMBS, patients (%) (Overall (n=13), Total) | LUNG INFECTION, patients (%) (Overall (n=13), Total) | RASH MACULO-PAPULAR, patients (%) (Overall (n=13), Total) | ACTIVATED PARTIAL THROMBOPLASTIN TIME PROLONGED, patients (%) (Overall (n=13), grade 1&2) | ANEMIA, patients (%) (Overall (n=13), grade 1&2) | ANOREXIA, patients (%) (Overall (n=13), grade 1&2) | CONSTIPATION, patients (%) (Overall (n=13), grade 1&2) | DYSPNEA, patients (%) (Overall (n=13), grade 1&2) | EDEMA LIMBS, patients (%) (Overall (n=13), grade 1&2) | LUNG INFECTION, patients (%) (Overall (n=13), grade 3+)
4 (30.8): DIARRHEA, patients (%) (Overall (n=13), Total) | HYPOKALEMIA, patients (%) (Overall (n=13), Total) | MUCOSITIS ORAL, patients (%) (Overall (n=13), Total) | DIARRHEA, patients (%) (Overall (n=13), grade 1&2)
9 (69.2): ANEMIA, patients (%) (human, in vivo)
